Data reported in patent US20260372303A1, “5-Fluoro-4-Imino-3-Methyl-1-Tosyl-3, 4-Dihydropyrimidin-2(1H) -One for Fungicide-Resistant Fungus” (priority 2022, published 2026).

How the values were obtained:
Assay type in all cases: in vivo
[1] = system: Zymoseptoria tritici strain Zt StA; assay: In planta preventive efficacy on wheat cv. Alixan against Zymoseptoria tritici strain Zt StA (control strain, sensitive); conditions: for Disease Severity Intensity: % of length of 2nd leaf blade, preventive 24 h; for AUDPC: control 781.6
Description: (§1) A series of experiments were conducted to evaluate the efficacy of flumetylsulforim (ADF-16) for treating different strains of Zymoseptoria tritici in comparison with commercially available fungicides. Table 1 describes the Z. tritici strains used in this study and Table 2 describes the fungicides used in this study.
(§2) Winter wheat plants cv. Alixan (Limagrain) at the BBCH 12 growth stage were treated preventively with sterile distilled water (control), ADF-16, penthiopyrad, metconazole or tebuconazole at the rates described in Table 2 with a hand sprayer at 2 bars.
(§3) After treatment, wheat plants were left to dry at room temperature for 1 hour and then placed in a climatic chamber: temperature of 24 °C day/18 °C night-photoperiod of 16 h light/8 h dark and a relative humidity of 65%.
(§4) Untreated or treated whole wheat plants were inoculated 24-hours post-treatment with a calibrated pycnospore suspension of Z. tritici strains Zt StA, Zt 61, Zt 99, Zt 20, Zt 19-52, and Zt 38-02. Three replicates (pots) of 6 wheat plants each were used for each condition tested.
(§5) After inoculation, pots were transferred in a climatic chamber: temperature of 20 °C day/17 °C night—photoperiod of 16 h light/8 h dark and controlled relative humidity.
(§6) Disease assessments were carried out at 15 days post inoculation (dpi), 21 dpi and 28 dpi by measuring the length of the necrosis on the second leaf blade. The intensity of infection was then determined as a percentage of the total length of 2nd leaf blade.
(§7) The fungicide efficacies were determined from the Area Under the Disease Progress Curve (AUDPC) values and expressed as a percentage of the untreated control.
(§8) The AUDPC is a quantitative measure of disease intensity over time. The most commonly used method for estimating the AUDPC, the trapezoidal method, is performed by multiplying the average disease intensity between each pair of adjacent timepoints by the corresponding time interval and this for each time interval. The AUDPC is determined with the following formula by adding all of the trapezoids:
(§9) [formula] • yi=disease severity at the ith observation • ti=time (days) at the ith observation • N=total number of observations

[2] = system: Zymoseptoria tritici strain Zt 61; assay: In planta preventive efficacy on wheat cv. Alixan against Zymoseptoria tritici strain Zt 61; set-up: fungicide efficacy: concentration or dose not given beside the values; conditions: for Disease Severity Intensity: % of length of 2nd leaf blade, preventive 24 h; for AUDPC: control 1194.9
Description: as §1, §2, §3, §4, §5, §6, §7, §8, §9

[3] = system: Zymoseptoria tritici strain Zt 99; assay: In planta preventive efficacy on wheat cv. Alixan against Zymoseptoria tritici strain Zt 99; conditions: for Disease Severity Intensity: % of length of 2nd leaf blade, preventive 24 h; for AUDPC: control 1352.9
Description: as §1, §2, §3, §4, §5, §6, §7, §8, §9

[4] = system: Zymoseptoria tritici strain Zt 19-52; assay: In planta preventive efficacy on wheat cv. Alixan against Zymoseptoria tritici strain Zt 19-52; conditions: % of length of 2nd leaf blade, preventive 24 h
Description: as §1, §2, §3, §4, §5, §6, §7, §8, §9

[5] = system: Zymoseptoria tritici strain Zt 20; assay: In planta preventive efficacy on wheat cv. Alixan against Zymoseptoria tritici strain Zt 20; conditions: % of length of 2nd leaf blade, preventive 24 h
Description: as §1, §2, §3, §4, §5, §6, §7, §8, §9

[6] = system: Zymoseptoria tritici strain Zt 38-02; assay: In planta preventive efficacy on wheat cv. Alixan against Zymoseptoria tritici strain Zt 38-02; conditions: for Disease Severity Intensity: % of length of 2nd leaf blade, preventive 24 h; for AUDPC: control 1261.4
Description: as §1, §2, §3, §4, §5, §6, §7, §8, §9

[7] = 15 dpi, rate N (g a.i./ha): ADF-16 100, penthiopyrad 200, metconazole 90, tebuconazole 250, control also no disease
[8] = 15 dpi, rate N/2.5 (g a.i./ha): ADF-16 40, penthiopyrad 80, metconazole 36, tebuconazole 100, control also no disease
[9] = rate N (g a.i./ha): ADF-16 100, penthiopyrad 200, metconazole 90, tebuconazole 250
[10] = rate N/2.5 (g a.i./ha): ADF-16 40, penthiopyrad 80, metconazole 36, tebuconazole 100

CC(C)CC(C)c1sccc1NC(=O)c1cn(C)nc1C(F)(F)F (stereo not drawn) [Penthiopyrad]
Disease Severity Intensity [1, 7]: No disease | Disease Severity Intensity [1, 8]: No disease | Disease Severity Intensity ([1]; 21 dpi, rate N (g a.i./ha): ADF-16 100, penthiopyrad 200, metconazole 90, tebuconazole 250, control 36.5): 0.0 +/− 0.0b % | Disease Severity Intensity ([1]; 21 dpi, rate N/2.5 (g a.i./ha): ADF-16 40, penthiopyrad 80, metconazole 36, tebuconazole 100, control 36.5): 0.0 +/− 0.0b % | Disease Severity Intensity ([1]; 28 dpi, rate N (g a.i./ha): ADF-16 100, penthiopyrad 200, metconazole 90, tebuconazole 250, control 77.4): 0.0 +/− 0.0b % | Disease Severity Intensity ([1]; 28 dpi, rate N/2.5 (g a.i./ha): ADF-16 40, penthiopyrad 80, metconazole 36, tebuconazole 100, control 77.4): 0.0 +/− 0.0b % | Efficacy (from AUDPC, percentage of the untreated control) [1, 9]: 100% | AUDPC [1, 9]: 0.0 +/− 0.0b | Efficacy (from AUDPC, percentage of the untreated control) [1, 10]: 100% | AUDPC [1, 10]: 0.0 +/− 0.0b | Disease Severity Intensity [2, 7]: No disease | Disease Severity Intensity [2, 8]: No disease | Disease Severity Intensity ([2]; 21 dpi, rate N (g a.i./ha): ADF-16 100, penthiopyrad 200, metconazole 90, tebuconazole 250, control 63.3): 1.2 +/− 0.5d % | Disease Severity Intensity ([2]; 21 dpi, rate N/2.5 (g a.i./ha): ADF-16 40, penthiopyrad 80, metconazole 36, tebuconazole 100, control 63.3): 19.9 +/− 3.8b % | Disease Severity Intensity ([2]; 28 dpi, rate N (g a.i./ha): ADF-16 100, penthiopyrad 200, metconazole 90, tebuconazole 250, control 88.1): 18.2 +/− 2.8e % | Disease Severity Intensity ([2]; 28 dpi, rate N/2.5 (g a.i./ha): ADF-16 40, penthiopyrad 80, metconazole 36, tebuconazole 100, control 88.1): 74.3 +/− 2.3b % | fungicide efficacy ([2]; higher application rates (N)): ≥ 85% | fungicide efficacy ([2]; lower application rates (N/2.5)): ≤ 70% | Efficacy (from AUDPC, percentage of the untreated control) [2, 9]: 93.3% | AUDPC [2, 9]: 80.2 ± 9.8 days | Efficacy (from AUDPC, percentage of the untreated control) [2, 10]: 55.0% | AUDPC [2, 10]: 537.9 +/− 53.2b | Disease Severity Intensity ([3]; 15 dpi, rate N (g a.i./ha): ADF-16 100, penthiopyrad 200, metconazole 90, tebuconazole 250, control 47.9): 12.9 +/− 2.1c % | Disease Severity Intensity ([3]; 15 dpi, rate N/2.5 (g a.i./ha): ADF-16 40, penthiopyrad 80, metconazole 36, tebuconazole 100, control 47.9): 27.5 +/− 2.2b % | Disease Severity Intensity ([3]; 21 dpi, rate N (g a.i./ha): ADF-16 100, penthiopyrad 200, metconazole 90, tebuconazole 250, control 81.0): 70.2 +/− 2.8b % | Disease Severity Intensity ([3]; 21 dpi, rate N/2.5 (g a.i./ha): ADF-16 40, penthiopyrad 80, metconazole 36, tebuconazole 100, control 81.0): 72.0 +/− 3.6b % | Disease Severity Intensity ([3]; 28 dpi, rate N (g a.i./ha): ADF-16 100, penthiopyrad 200, metconazole 90, tebuconazole 250, control 92.2): 90.6 +/− 1.7ab % | Disease Severity Intensity ([3]; 28 dpi, rate N/2.5 (g a.i./ha): ADF-16 40, penthiopyrad 80, metconazole 36, tebuconazole 100, control 92.2): 90.9 +/− 1.6ab % | Efficacy (from AUDPC, percentage of the untreated control) [3, 9]: 32.9% | AUDPC [3, 9]: 908.4 +/− 11.3c | Efficacy (from AUDPC, percentage of the untreated control) [3, 10]: 20.4% | AUDPC [3, 10]: 1076.9 +/− 17.9b | Disease Severity Intensity ([4]; 15 dpi, rate N (g a.i./ha): ADF-16 100, penthiopyrad 200, metconazole 90, tebuconazole 250, control 22.0): 0.0 +/− 0.0b % | Disease Severity Intensity ([4]; 15 dpi, rate N/2.5 (g a.i./ha): ADF-16 40, penthiopyrad 80, metconazole 36, tebuconazole 100, control 22.0): 0.0 +/− 0.0b % | Disease Severity Intensity ([4]; 21 dpi, rate N (g a.i./ha): ADF-16 100, penthiopyrad 200, metconazole 90, tebuconazole 250, control 81.7): 0.0 +/− 0.0c % | Disease Severity Intensity ([4]; 21 dpi, rate N/2.5 (g a.i./ha): ADF-16 40, penthiopyrad 80, metconazole 36, tebuconazole 100, control 81.7): 0.0 +/− 0.0c % | Disease Severity Intensity ([4]; 28 dpi, rate N (g a.i./ha): ADF-16 100, penthiopyrad 200, metconazole 90, tebuconazole 250, control 91.0): 0.0 +/− 0.0f % | Disease Severity Intensity ([4]; 28 dpi, rate N/2.5 (g a.i./ha): ADF-16 40, penthiopyrad 80, metconazole 36, tebuconazole 100, control 91.0): 2.0 +/− 0.8e % | Disease Severity Intensity [5, 7]: No disease | Disease Severity Intensity [5, 8]: No disease | Disease Severity Intensity ([5]; 21 dpi, rate N (g a.i./ha): ADF-16 100, penthiopyrad 200, metconazole 90, tebuconazole 250, control 77.2): 0.3 +/− 0.3e % | Disease Severity Intensity ([5]; 21 dpi, rate N/2.5 (g a.i./ha): ADF-16 40, penthiopyrad 80, metconazole 36, tebuconazole 100, control 77.2): 0.0 +/− 0.0e % | Disease Severity Intensity ([5]; 28 dpi, rate N (g a.i./ha): ADF-16 100, penthiopyrad 200, metconazole 90, tebuconazole 250, control 95.5): 1.2 +/− 0.6g % | Disease Severity Intensity ([5]; 28 dpi, rate N/2.5 (g a.i./ha): ADF-16 40, penthiopyrad 80, metconazole 36, tebuconazole 100, control 95.5): 2.0 +/− 1.4g % | Disease Severity Intensity ([6]; 15 dpi, rate N (g a.i./ha): ADF-16 100, penthiopyrad 200, metconazole 90, tebuconazole 250, control 36.0): 0.0 +/− 0.0b % | Disease Severity Intensity ([6]; 15 dpi, rate N/2.5 (g a.i./ha): ADF-16 40, penthiopyrad 80, metconazole 36, tebuconazole 100, control 36.0): 0.0 +/− 0.0b % | Disease Severity Intensity ([6]; 21 dpi, rate N (g a.i./ha): ADF-16 100, penthiopyrad 200, metconazole 90, tebuconazole 250, control 84.3): 10.9 +/− 2.1e % | Disease Severity Intensity ([6]; 21 dpi, rate N/2.5 (g a.i./ha): ADF-16 40, penthiopyrad 80, metconazole 36, tebuconazole 100, control 84.3): 70.7 +/− 3.3b % | Disease Severity Intensity ([6]; 28 dpi, rate N (g a.i./ha): ADF-16 100, penthiopyrad 200, metconazole 90, tebuconazole 250, control 95.7): 54.9 +/− 3.2d % | Disease Severity Intensity ([6]; 28 dpi, rate N/2.5 (g a.i./ha): ADF-16 40, penthiopyrad 80, metconazole 36, tebuconazole 100, control 95.7): 86.5 +/− 2.1c % | Efficacy (from AUDPC, percentage of the untreated control) [6, 9]: 79.2% | AUDPC [6, 9]: 262.9 ± 12.5 days | Efficacy (from AUDPC, percentage of the untreated control) [6, 10]: 39.5% | AUDPC [6, 10]: 763.1 +/− 4.4b
